Literature values, collected in patent US20260183243A1, “PHARMACEUTICAL COMPOSITIONS OF NOR-UDCA” (SHILPA MEDICARE LIMITED, priority 2022, published 2026).

Settings: background statement, no test described

- solubility in an aqueous medium: poorly soluble
SMILES: C[C@H](CC(=O)O)[C@H]1CC[C@H]2[C@@H]3[C@@H](O)C[C@@H]4C[C@H](O)CC[C@]4(C)[C@H]3CC[C@]12C [Nor-UDCA, 24-nor-ursodeoxycholic acid]
